Measured values taken from PMC10149367, “The ferroptosis inducing compounds RSL3 and ML162 are not direct inhibitors of GPX4 but of TXNRD1” (Redox Biology, 2023).
“Also recorded” adds a separate entry of the source.

How the values were obtained:
[1] = biological target: T1, GPX1 (Homo sapiens, UniProt P07203); assay: GPX1 activity assay, pure enzyme (NADPH consumption, cumene hydroperoxide); format: biochemical; details: recombinant selenoprotein, pure enzyme system
T1 construct: made in house
T1 sequence (P07203 1-203): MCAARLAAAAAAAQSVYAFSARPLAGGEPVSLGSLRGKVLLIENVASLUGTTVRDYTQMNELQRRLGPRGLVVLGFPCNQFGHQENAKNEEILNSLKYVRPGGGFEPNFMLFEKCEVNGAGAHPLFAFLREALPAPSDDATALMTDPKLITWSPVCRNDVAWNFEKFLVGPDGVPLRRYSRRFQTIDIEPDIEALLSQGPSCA
Experimental: (§1) Recombinant human proteins—Recombinant human selenoprotein GPX and TXNRD isoenzymes as well as recombinant human GR were cloned, expressed, and purified as described previously [[26], [27], [28]].
Biochemical assays—GPX assays were run as previously described [[26], [27], [28]] in a clear medium-binding 96-well SpectraPlates (PerkinElmer). Briefly, 198 μL of 10 nM GPX1 or 200 nM GPX4 were incubated with 2 μL compounds or DMSO in TES buffer (50 mM Tris-HCl, 2 mM EDTA (pH 7.5), 150 mM NaCl) with BSA at room temperature for 30 min. Then, 40 μL of master mix (100 nM GR, 1 mM GSH, 0.5 mM NADPH in TES buffer) was added. To start the reaction, 10 μL of Cumene hydroperoxide ([0.5 mM] in 50% EtOH) was then added. Absorbance at 340 nm was measured using a Tecan Infinite® M Nano microplate reader every 20 s for 30 min. Four replicates were run, unless otherwise stated.

[2] = biological target: T2, TXNRD1 (Homo sapiens, UniProt Q16881); assay: TXNRD1 activity assay, pure enzyme (Fig. 1A); format: biochemical; details: recombinant TXNRD1, Fig. 1A assay conditions; read-out: IC50 TXNRD1 inhibition
T2 construct: made in house
T2 sequence (Q16881 1-499 isoform Q16881-5): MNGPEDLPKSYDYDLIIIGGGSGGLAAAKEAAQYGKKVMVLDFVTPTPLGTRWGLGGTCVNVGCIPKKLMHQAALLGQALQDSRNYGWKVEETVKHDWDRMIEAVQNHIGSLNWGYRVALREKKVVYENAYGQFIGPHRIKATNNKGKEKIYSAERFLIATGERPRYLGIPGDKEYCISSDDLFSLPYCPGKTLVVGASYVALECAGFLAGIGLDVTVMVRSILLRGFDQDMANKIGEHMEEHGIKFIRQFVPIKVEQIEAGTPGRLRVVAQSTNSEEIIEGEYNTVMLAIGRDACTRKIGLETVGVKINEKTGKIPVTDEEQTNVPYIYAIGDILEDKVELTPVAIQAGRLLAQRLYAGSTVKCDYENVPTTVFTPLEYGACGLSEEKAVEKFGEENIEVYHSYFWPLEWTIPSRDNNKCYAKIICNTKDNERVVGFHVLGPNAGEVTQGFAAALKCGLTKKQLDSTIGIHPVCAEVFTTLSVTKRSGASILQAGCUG
Experimental: as §1
(§2) TXNRD1 selenite and DTNB assays were run as previously described [[26], [27], [28]]. Dose-response curves and IC50s were generated using Excel and GraphPad Prism. Briefly, initial slopes of NADPH consumption were normalized to DMSO controls and IC50s were calculated using log(inhibitor) vs. response—Variable slope (four parameters).

[3] = biological target: T2, TXNRD1; assay: TXNRD1 orthogonal assays (selenite reduction, DTNB reduction; Extended Data Fig. 2); format: biochemical; details: for TXNRD1 remaining activity: 5 µM compound; for Inhibition of TXNRD1 without NADPH pre-reduction: incubated with compound in the absence of NADPH, then assayed; for IC50: orthogonal assays, Extended Data Fig. 2A and 2B, read-out: curve-fit IC50 TXNRD1
Experimental: as §2
Supplementary Data Extended Data Set
(Extended Data Fig. 2A, left panel). Measuring inhibition of TXNRD1 activity, as a complement to the analyses shown in the main text of this article, we also assessed this using two orthogonal approaches: 1. by the measurement of NADPH consumption coupled to direct selenite reduction of TXNRD1, either through the decrease in absorbance at 340 nm or decrease in its fluorescence, and 2. measuring TXNRD1-catalyzed DTNB reduction based upon quantification of TNB- anions absorbing at 412 nm as formed upon TXNRD1-catalyzed reduction of the disulfide in DTNB. Using these assays, we could confirm that the RSL3 inhibition of TXNRD1 was not an artifact due to specific assay conditions, with both RSL3 and ML162 showing complete inhibition of TXNRD1 at the higher end of the concentrations assessed here (2.8 ± 0.9% and 5.8 ± 0.9% remaining activity with just 5 µM of RSL3 and […]
ML162 (Extended Data Fig. 2A, middle and right panels, and 2B). […]
any inhibition of TXNRD1 in any of the assays. […]
µM, respectively (Extended Data Fig. 2B). Like with TRi-1 and TRi-2, inhibition of both TXNRD1 and TXNRD2 by RSL3 and ML162 was essentially dependent on pre-reduction of the enzyme by NADPH in order to yield potent and complete inactivation. Both compounds […]
ML162 in the absence of NADPH and subsequently assayed for activity; however, this could also be due to carry-over of the compounds to the NADPH dependent enzyme activity assay.
Because the reduction step with NADPH reduces a selenenylsulfide at the C-terminal active […]
of the selenolate at the C-terminal active site of the NADPH-reduced enzyme. That some […]
compounds might also bind some other additional site(s) in the enzyme. That notion is further strengthened by the fact that thermostability of TXNRD1 was also affected at higher concentrations of compounds when incubated with the enzyme in the absence of NADPH (see […]
dose-response curve fit to the average of n = 3 technical replicates. […]
well (middle left panel) and 1536-well format (not shown), as well as a DTNB assay (middle […]
TXNRD2 by RSL3 (left panel), ML162 (middle left panel), TRi-1 (middle right panel), and TRi-2 (right panel) are modulated by NADPH pre-treatment; Data are presented as mean ± s.d.; Four-parameter dose-response curve fit to the average of n = 3 technical replicates (n = 2

[4] = biological target: T2, TXNRD1; assay: nano differential scanning fluorimetry, TXNRD1; format: binding; details: for Tm of TXNRD1 (nanoDSF): 100 μM compound, DMSO control 71.3 °C
Experimental: Nano differential scanning fluorimetry—Real-time monitoring of fluorescence emission at 330 nm and 350 nm (excitation wavelength: 280 nm) and backscattering absorbance of GPX4 and TXNRD1 samples in the presence of compound was performed using a NanoTemper Prometheus NT.48 instrument. […] Standard capillaries were used, and temperature was increased from 25 to 95 °C with a ramp rate of 4.0 °C/min. Three biological replicates were carried out for each condition, and their means and standard deviations are depicted.

Row | SMILES | Inhibition of GPX1 [1] | IC50 [2] [µM] | TXNRD1 remaining activity [3] [%] | Inhibition of TXNRD1 without NADPH pre-reduction [3] | IC50 [3] [µM] | Tm of TXNRD1 (nanoDSF) [4] [°C] | Tm shift of TXNRD1 ([4]; 31.25 μM) | Tm shift of TXNRD1 ([4]; 125 μM) | Tm shift of TXNRD1 ([4]; 500 μM)
1 | COc1ccc(N(C(=O)CCl)C(C(=O)NCCc2ccccc2)c2cccs2)cc1Cl (stereo not drawn) [ML162] | neither RSL3, ML162, nor ML210 inhibited either GPX isoenzyme | 19.5 | 5.8 ± 0.9 | some inhibition | 0.515 | 73.6 |  |  | 
2 | COC(=O)c1ccc([C@@H]2c3[nH]c4ccccc4c3C[C@@H](C(=O)OC)N2C(=O)CCl)cc1 [RSL3, (1S,3R)RSL3] | neither RSL3, ML162, nor ML210 inhibited either GPX isoenzyme; also recorded: did not inhibit GPX1 or GR | 7.9 | 2.8 ± 0.9 | some inhibition | 0.745 | 73.3 | +0.5 °C | +2.9 °C | +4.6 °C
